Measurements: publication PMC7714071, “Interaction of amyloid beta with humanin and acetylcholinesterase is modulated by ATP” (FEBS Open Bio, 2020)

Tested on: Aβ in A549 cell-conditioned media
Assay: ELISA, oligomer versus total Aβ in A549 cell-conditioned media
Type: cell-based, human
Conditions: Fig. 8A
Description: Aβ ELISAs were carried out according to previous protocols for determining the oligomeric and monomeric concentrations of Aβ and as we recently reported. Briefly, total Aβ (monomers + oligomers) was measured by two‐site binding ELISAs using the capture 6E10 monoclonal antibody and 4G8‐conjugated biotin as the detection antibody, which recognizes a distinct epitope, then quantitated using streptavidin‐HRP.
Using the same samples, oligomerized Aβ was measured by a single‐site ELISA in which antibodies targeting the same primary sequence epitope were used for both capture (4G8) and detection (4G8‐biotin). Only oligomers are detected with this approach since the 4G8‐biotin antibody cannot bind to the captured monomer because the epitope is blocked by the 4G8 capture antibody. Therefore, only oligomeric or multimeric Aβ containing additional exposed 4G8 epitopes, not engaged by the capture antibody, are reported by the streptavidin–HRP. The amount of the monomer was then estimated as the difference between the concentration of total Aβ and the concentration of the oligomer.
Conditioned media were immunodepleted (ID) according to the methods previously described and our recently published report. Briefly, specific antibodies were bound to ELISA wells overnight (1 : 1000 dilution). The wells were then blocked and washed, then 300 μL of the conditioned medium (0.5 μg·μL^−1) treated as indicated, 72 h postserum starvation, was incubated with the antibodies bound to ELISA wells for 24 h. The ID media were then carefully removed and analyzed for the presence of the target protein or peptide by ELISA. The same amount of protein (3 µL of 600 µg·mL^−1 total protein) of each sample was analyzed in the experiments. Significant depletion (95–100%) was observed upon using each of the antibodies employed in this study.
Both epitopes recognized by the 6E10 and 4G8 antibodies have been previously shown to be exposed in Aβ aggregates. […] To determine the effect of ID of AChE or HN on this ratio in the absence or presence of added ATP, 0.2 × 10^5 cells per well were seeded in 96‐well plates in 10% FBS‐supplemented media. The next day, the cells were incubated in serum‐free medium for 72 h, then ID of AChE or HN as described in Materials and methods. The antibodies 6E10 or 4G8 were bound (1 : 1000 dilution) to ELISA wells (Fig. 8). The wells were blocked, and then incubated with 300 μL of the ID medium (0.5 μg·μL^−1). Biotin‐4G8 was then added and the signal processed as described in Materials and methods section. Fold change relative to controls using anti‐6E10 or anti‐4G8 antibodies incubated with 300 μL of the medium not incubated with cells was calculated.
Cells (0.2 × 10^5) were grown in 10% FBS‐supplemented media for 24 h. The cells were then incubated in serum‐free medium for 72 h without or with ATP and the media collected and ID from either HN or AChE as described in Materials and methods section. The antibodies 6E10 or 4G8 were bound (1 : 1000 dilution) to ELISA wells. The wells were blocked, and then incubated with 300 μL of the control and ID medium (0.5 μg·μL^−1). Biotin‐4G8 was then added and the signal processed as described in Materials and methods section. Fold change relative to controls using anti‐6E10 and anti‐4G8 antibodies and 300 μL of the medium not incubated with cells was calculated. Data were processed using the […] 8.4.3 software. The graphs summarize the results expressed as means ± SD of three separate experiments, each performed in triplicate. […]

## Nc1ncnc2c1ncn2[C@@H]1O[C@H](COP(=O)(O)OP(=O)(O)OP(=O)(O)O)[C@@H](O)[C@H]1O [ATP, Adenosine triphosphate]
HN-immunodepleted A549 media, three experiments in triplicate
  effect of ATP on relative amount of oligomer versus total Aβ: does not affect
non-depleted, HN-ID or AChE-ID media
  effect of ATP on relative amount of oligomer versus total Aβ: lack of effect

## Humanin [HN]
HN-immunodepleted A549 media (non-depleted ~ 63%)
  oligomer, % of total Aβ remaining after HN ID: ~ 86%
HN-immunodepleted A549 media
  total Aβ remaining after HN ID: ~ 63%
